Here are results for 2 compounds from patent US20020091158A1, “Composition for and method of treatment using triterpenoids” (priority 1999, published 2002).

For data set [1] the following is noted: cited from earlier work.
The test system of data set [2] is BC-1 cells. As to the kind of experiment: Effect on BC-1 cells growth curve (KSHV/EBV-infected). Type of data set: cell-based, human. The conditions noted are these: 6 days. The method, then:
(§1) The Glycyrrhizic acid (as ammonium salt supplied by Sigma) is dissolved in 25% of ethanol at 100 mM and adjusted to pH 6.8 with 1 N sodium hydroxide. The maximum inhibition activity with no effect on cell cycle is achieved with 4 mM, the dose-dependent range is within 2mM to 5mM.
(§2) BC-1 and BC-2 are cell lines established from two different HIV positive patients with non-Hodgkins lymphoma, specifically body cavity-based lymphomas. The cells are KSHV/EBV-infected and can be induced to enter lytic replication and viral production by treatment with TPA or with butyrate. These cells have an intact KSHV and EBV genomes and are ideal for KSHV and EBV isolation and study.(Cesarman, E. et al., Blood 1995 Oct.;86(7):2708-14.
(§3) The cells are treated for six days with alcohol 1%, glycyrrhizic acid 2 mM […], glycyrrhizic acid 3 mM and 4 mM in alcohol 0.5%, 0.75% and 1% respectively. After 6 days treatment cells growth decreased 50% using glycyrrhizic acid 2 mM and glycyrrhizic acid 3 mM. Cells growth decreased 80% using glycyrrhizic acid 4 mM.

Data set [3] has as its system BC-2 cells. Nature of the data set: Effect on BC-2 cells growth curve (KSHV/EBV-infected). Type of data set: cell-based, human. To be noted: 6 days. How it is done: as §1, §2, §3
Data set [4] relates to KSHV cyclin, v-FLIP and LANA (orf 73) genes. Nature of the data set: Northern blot of viral latent genes transcription in BC-3 cells. Type of data set: cell-based, Kaposi's sarcoma-associated herpesvirus (KSHV). The conditions noted are these: for effect on the viral latent genes transcription: BC-3 cells, six days. The method, then:
(§4) Total RNA was extracted using RNAzol B (Tel-Test Inc., Friendswood, Tex.) according to the manufacturer's instructions, and Poly A+RNA was selected with Poly A+ Tract kit (Promega, Madison, Wis.). To eliminate any contaminating DNA, the RNA samples were treated with 2 U RNAse free DNAse (Promega).
(§5) For Northern blot analysis, […] of each mRNA sample was electrophoresed in 1.5% formaldehyde agarose gel and then transferred to a Gene Screen nylon membrane (Du Pont, Boston, Mass.) overnight with 20×SSC. Filters were UV-cross-linked to fix the RNA and hybridized at 42° C. with probes obtained by PCR amplification of KSHV cyclin, v-FLIP and LANA (orf 73) genes (20) and labeled by ^32P random priming (Amersham Life Science, Buckinghamshire, England). Human β-actin probe was used as a quantitative control to measure the total mRNA. Membranes were washed twice at room temperature and twice at 65° C. then exposed.
(§6) On the left side are indicated the probes used. On the right side are indicated the size of the transcripts. All probes correspond to viral latent genes, except the human b actin which is used as a quantitative control to measure the transcription of total cellular mRNA.
(§7) Lane 6 is the positive control.

In data set [5] the test system is KSHV latent antigens. As to the kind of experiment: Immunofluorescence assay of BC-3 cells for latent KSHV antigens. Type of data set: cell-based, Kaposi's sarcoma-associated herpesvirus (KSHV). The conditions noted are these: 4 mM, stained with KS patient serum (panel C). The method, then:
Secondary antibody FITC-conjugated F(ab′)2 fragment of rabbit antihuman IgG (DAKO, Carpinteria, Calif.) diluted 1:40 in MB was applied. Cell nuclei were counterstained for 5 min, in PBS containing 17 μM Dapi (4′-6′-diamino-2′-phenyidole dihydrochloride [Boehringer Mannheim Corp., Indianapolis, Ind.]), rinsed in TBST, mounted with Vectashield (Vector Lab. Inc., Burlingame, Calif.) and examined in a fluorescence microscope Axioplan2 (Zeiss, Germany). BC-3 cells were run in parallel as controls.
In panel C the BC-3 cells have been treated with glycyrrhizic acid 4 mM and stained with KS patient serum. In panel D BC-3 cells have been treated with glycyrrhizic acid 4 mM and stained with Dapi to localize the nuclei. Kaposi's Sarcoma patient serum is used primary antibody to stain the KSHV latent antigens.

The test system of data set [6] is Human β-actin. As to the kind of experiment: Northern blot of β-actin as control for total cellular mRNA transcription. Type of data set: cell-based. How it is done: as §4, §5, §6, §7
Data set [7] deals with BJAB cells. Nature of the data set: Effect on BJAB cells growth curve (KSHV negative control cells). Type of data set: cell-based, human. To be noted: six days, 2 mM and 4 mM in alcohol 0.5% and 1%. The method, then:
as §1
(§8) BJA-B is an Epstein-Barr virus (EBV)-negative lymphoblastoid cell line established from an African Burkift's lymphoma, KSHV negative cell line. See Menezes J, et al, Establishment and characterization of an Epstein-Barr virus (EBV)-negative lymphoblastoid B cell line (BJA-B) from an exceptional, EBV-genome-negative African Burkitt's lymphoma. Biomedicine 1975 Jul; 22 (4): 276-84. These cells are used as controls. Cells are cultured at concentration of 4×10^5/ml in RPMI with 20% of fetal calf serum in the presence or absence of different drug concentrations.
Cells are treated for six days with alcohol 0.5% and 1%, Glycyrrhizic acid 2 mM and 4 mM in alcohol 0.5% and 1% respectively. Glycyrrhizic acid has no effect on the cells proliferation.

Data set [8] has as its system BC-3 cells. As to the kind of experiment: Effect on BC-3 cells growth curve (latently KSHV-infected). Type of data set: cell-based, human. The method, then: as §1
BC-3 is a cell line established from a HIV negative patient with a primary effusion lymphoma. See Arvanitakis L, et al Establishment and characterization of a primary effusion (body cavity-based) lymphoma cell line (BC-3) harboring Kaposi's sarcoma-associated herpesvirus (KSHV/HHV-8) in the absence of Epstein-Barr virus. Blood 88:2648-2654, 1996. The cells are latently KSHV-infected, but lacks EBV, and can be induced to enter lytic replication and viral production by treatment with TPA or with butyrate. BC-3 has an intact KSHV genome and is suitable for the isolation and study of KSHV.
as §8
The cells are treated for six days with alcohol 0.5% and 1%, Glycyrrhizic acid 2 mM and 4 mM in alcohol 0.5% and 1% respectively. Cells growth is 50% inhibited by Glycyrrhizic acid 2 mM, while treatment with Glycyrrhizic acid 4 mM determines cell death.

Like-named read-outs stand apart in the source and are kept apart here.

`CC1(C(=O)O)CCC2(C)CCC3(C)C(=CC(=O)C4C5(C)CCC(OC6OC(C(=O)O)C(O)C(O)C6OC6OC(C(=O)O)C(O)C(O)C6O)C(C)(C)C5CCC43C)C2C1.N.O.O.O.O.O` (stereo not drawn) [Ammonium glycyrrhizinate pentahydrate]: in data set [1] (ammonia water, ethanol, glacial acetic acid), the solubility result was “soluble”.
Turning to `CC1(C)[C@@H](O[C@H]2O[C@H](C(=O)O)[C@@H](O)[C@H](O)[C@H]2O[C@@H]2O[C@H](C(=O)O)[C@@H](O)[C@H](O)[C@H]2O)CC[C@]2(C)[C@H]3C(=O)C=C4[C@@H]5C[C@@](C)(C(=O)O)CC[C@]5(C)CC[C@@]4(C)[C@]3(C)CC[C@@H]12` [Glycyrrhizic acid], the solubility result in data set [1] (hot water and alcohol) is on record as “freely soluble”. In addition, the cells growth decreased in data set [2] (2 mM) stood at 50%; in data set [2] (3 mM), 50%; in data set [2] (4 mM) it was 80%; in data set [3] (2 mM), 50%; in data set [3] (3 mM) it was 50%; in data set [3] (4 mM), 80%. Further, in data set [4], the “concentration of maximum inhibition activity with no effect on cell cycle” value is on record as 4 mM. The “effect on the viral latent genes transcription” value in data set [4] (2 mM (lane 7)) is “does not show any effect”; in data set [4] (4 mM (lane 8)), “almost totally inhibited”. In addition, the “expression of latent viral antigens” value in data set [5] is reported as “inhibits the expression of latent viral antigens”. Moreover, in data set [6] (BJA-B cells, six days, 2 mM and 4 mM (lanes 1-5)), the “transcription of total cellular mRNA (b actin)” value was “not inhibited”. For the same compound, the “effect on cellular mRNA (β actin)” value in data set [6] (all samples, BJA-B and BC-3) is recorded as “does not have any effect”. Moreover, the “effect on the cells proliferation” value in data set [7] is listed as “no effect”. In data set [8] (BC-3 cells, six days, 4 mM), the “effect on cells growth” value is “cell death”. Moreover, the inhibition at 2000 µM in data set [8] (Homo sapiens, 144 h, BC-3 cells, six days, 2 mM, read-out: cells growth inhibited) worked out at 50%. Further, the “KSHV infected cells killed” value in data set [8] (six days after treatment) is reported as “completely killed”.
